Experiment [1] concerns HCT116, RKO, and H460a cells. Put plainly: Real-time RT-qPCR of p21 and p53 genes in cancer cells with wild-type p53. Format: cell-based. The note with it: H203 for 8 h. As for the experimental part: […]. […] […]. Total RNAs were extracted using a Trizol protocol with RNeasy® Mini kit from Qiagen (TX, USA). The concentration of RNAs was measured with Nanodrop-2000c. Real-time qPCR was performed with a BaldStar TaqMan One-Step RT-qPCR Kit from Biorab (Beijing, China) on a BioRad CFX96 qPCR instrument (CA, USA). The primers and probes for qPCR were designed using Primer Express 3.0 software (Applied Biosystems, USA). […]. TaqMan probes were labeled with 5′-FAM and 3′-TAMRA. All primers and probes were synthesized by GenScript (Nanjing, China). Samples were analyzed in triplicate and normalized to the control.
In general terms: Real-time PCR tracks product formation cycle by cycle.

The next experiment concerns the target T1, N-MdmX (Homo sapiens, UniProt O15151).
T1 sequence (O15151 22-110): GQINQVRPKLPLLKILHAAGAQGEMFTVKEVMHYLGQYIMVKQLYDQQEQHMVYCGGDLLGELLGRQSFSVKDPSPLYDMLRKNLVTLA
Kind of experiment: Isothermal titration calorimetry (ITC) assay. (In general: In ITC the heat of successive injections is recorded.)

In general, Kd refers to a measure of binding affinity in units of concentration. Low readings indicate higher affinity, high ones lower affinity.

Where no end group is shown, it is not given here.

Description for N-MdmX: The protein−ligand interactions were characterized using a model ITC-200 isothermal titration microcalorimeter (Malvern, USA) at 25 °C. A typical experiment included the injection of 19 aliquots (2.0 μL each) containing an ~0.2 mM ligand solution into an ~10–20 μM protein solution in the ITC cell (volume of ∼200 μL). Titrations were performed with a stirring speed of 750 rpm and a spacing time of 120 s. A control experiment was run by injecting a ligand solution into buffer instead of a protein solution in the cell. Before data analysis, the control values were subtracted from the experimental data. The binding isotherms were integrated to give the enthalpy change (ΔH) plotted as a function of the molar ratio of the ligand. When necessary, prior to the integration procedures, the baseline was manually adjusted to minimize the background noise. The Origin 7.0-based software was used for data analysis with the one-set-of-binding-sites model. The disassociation constant of Kd was determined from the slope of the central linear part of the fractional saturation curve. The Gibbs free energy change (ΔG) and the entropy change (ΔS) were calculated on the basis of the following equations: ΔG =−RT ln Kd = ΔH − TΔS, where ΔH was derived from the original ΔH/molar ratio plots.

Consider `O=C1CN(C(=O)N2C(c3ccc4c(c3)N(c3ccccc3)C(=O)CNC4=O)=N[C@@H](c3ccc(Cl)cc3)[C@H]2c2ccc(Cl)cc2)CCN1` [H203], for which the “transcription of the p53 gene” value in experiment [1] was “unaffected”. Further, the “transcription of p21” value in experiment [1] (all three cell lines) is reported as “increased in a dose-dependent manner”.
On to WKLLPEN [p53p^ΔF19], for which the Kd on N-MdmX was determined as 20.1 ± 3.25 µM.

The values above are taken from PMC8885691, “Leveraging the multivalent p53 peptide-MdmX interaction to guide the improvement of small molecule inhibitors” (Nature Communications, 2022).
